Holding throughout (type): cell-based, human
The subject of assay [1] is Nalm-6 cells. The assay can be described thus: Cell viability assay using PI staining and forward scatter, Nalm-6. The following applies: for cell viability: caspase inhibitors 10 μM 2 hr at 37° C before treatment with mAb 216; for viability (percent viable cells): jasplakinolide 3 μgs/ml or cytochalasin 5 μgs/ml 2 hr at 37° C. Here is the method:
The integrity of the plasma membrane was assessed by the ability of cells to exclude propidium iodide (PI, Sigma, St. Louis, Mo.). The level of PI incorporation was quantitated by flow cytometry on FACScan (Becton-Dickinson, San Jose Calif.) interfaced with VersatermPro and FlowJo software at Stanford's FACS facility. PI-negative cells with normal size as measured by forward scatter signals were considered live cells.
Briefly, cells were treated as specified in each experiment and resuspended in PBS with 3% FCS and 10 μgs/ml of PI. In experiments where toxicity was evaluated in Ca-free medium, cells were resuspended in appropriate media with or without calcium to which 10 μgs/ml PI was added. Since previous studies have shown that mAb 216-mediated toxicity is remarkably […] at lower temperatures (Bhat, N. M., et al. (1996) Clin. Exp. Immunol 105, 183), precautions were taken to keep all media and cells at 37° C. and the centrifuge at room temperature.
Cytochalasin was obtained from Sigma and jasplakinolide was obtained from Molecular Probes (Eugene, Oreg.). Caspase inhibitors, Ac-IETD-CHO and Ac-DEVD-CHO were obtained from PharMingen (San Diego, Calif.). Nalm-6 cells (1×10^6 cells/ml) were treated with jasplakinolide (3 μgs/ml), cytochalasin (5 μgs/ml), or caspase inhibitors (10 μM) for 2 hr at 37° C. before treatment with mAb 216. Control samples with equivalent amounts of DMSO were set in parallel. Cells were then exposed to 25 μg of mAb 216 or control Ab and analyzed by flow cytometry.
Since exocytosis of lysosomes is known to be a calcium dependent phenomenon (Miyake, K., and P. L. McNeil (1995) J. Cell Biol. 131, 1737; Bi, G. Q., et al. (1995) J. Cell Biol. 131, 1747), membrane wounding by mAb 216 and repair of the wound was tested in calcium free and normal calcium conditions. The cell viability of Nalm-6 cells when treated with two VH4-34 encoded mAbs, mAb 216 at 50, 25 and 12.5 ng/ml concentrations, and Y2K at 50 ng/ml, was tested in the presence of media with and without calcium.
Brefeldin-A was obtained from Sigma. Nalm-6 cells (1×10^6 cells/ml) were treated with BFA (25 μg/ml) for 2 hr at 37° C. before treatment with mAb 216. Control samples with equivalent amounts of DMSO were set in parallel. Cells were then exposed to 25 μg of mAb 216 or control Ab and analyzed by flow cytometry.
The in vitro cytotoxicity of mAb 216 to Nalm-6 cells was evaluated using PI staining and viability assessment (percent live cells) as a function of the amount of mAb 216 present. The amount of mAb 216 needed to achieve 50% and 80% viability in Nalm-6 cells with and without a crosslinking agent (a secondary mAb, e.g., anti-human lambda) is shown in Table 1, expressed in nanograms antibody required to achieve the indicated level of cytotoxicity, as determined by PI entry into cells.

The subject of assay [2] is REH. Kind of assay: In vitro cytotoxicity of mAb216 in combination with chemotherapeutic agents, REH. To be noted: 48 h. Here is the method: (§1) Three cell lines which have been derived from ALL blasts of different genotype and phenotype, Nalm 6, REH, and SUPB15, were incubated with mAb 216 alone or in combination with vincristine (VCR), for 48 hours at 37° C.
(§2) In vitro cytotoxicity of mAb216 in combination with single chemotherapeutic agents was tested. Three cell lines which have been derived from ALL blasts of different genotype and phenotype, Nalm 6, REH, and SUPB15, were incubated with mAb 216 alone or in combination with vincristine (VCR), daunorubicin (DNR), or L-asparaginase (ASPR).

Assay [3] has as its system SUP B15. Kind of assay: In vitro cytotoxicity of mAb216 in combination with chemotherapeutic agents, SUP B15. To be noted: SUP B15, 48 h. The procedure:
as §1, §2

The test system of assay [4] is Nalm 6. The assay can be described thus: In vitro cytotoxicity of mAb216 in combination with chemotherapeutic agents, Nalm 6. The following applies: for Live cells: Nalm 6, 48 h. The procedure: as §1, §2

Values joined by “and” are separate entries in the source; they are usually repeats but may differ in a detail not shown here. Equal entries are not always repeated.

Turning to Ac-IETD-aldehyde, the cell viability entry in assay [1] is “did not alter cell viability”.

For `C/C1=C\[C@H](C)C[C@H](C)OC(=O)C[C@H](c2ccc(O)cc2)NC(=O)[C@@H](Cc2c(Br)[nH]c3ccccc23)N(C)C(=O)[C@H](C)NC(=O)[C@@H](C)C1` [jasplakinolide], the “viability (percent viable cells)” value in assay [1] (then control antibodies) was “did not show a decrease in viability”.

Ac-DEVD-CHO: the cell viability result in assay [1] is reported as “did not alter cell viability”.

Turning to `CC[C@]1(O)C[C@H]2CN(CCc3c([nH]c4ccccc34)[C@@](C(=O)OC)(c3cc4c(cc3OC)N(C=O)[C@H]3[C@@](O)(C(=O)OC)[C@H](OC(C)=O)[C@]5(CC)C=CCN6CC[C@]43[C@@H]65)C2)C1` [VCR, Vincristine], the live cell count in assay [2] (VCR 2 ng/ml) is 4.2 × 10^5 and 7.7 × 10^5. In addition, in assay [3] (VCR 2 ng/ml), the “Live cells × 10^5” value is 2.8 × 10^5. Also, the values for the Live cells in assay [4] (VCR 0.2 ng/ml) and in assay [4] (VCR 2 ng/ml) were 13 × 10^5 and 5 × 10^5, respectively. For the same molecule, the “cell death due to treatment with vincristine alone” value in assay [4] (vincristine 0.2 ng/ml, 48 hours at 37° C) is given as “no cell death occurred”.

Consider `COc1cccc2c1C(=O)c1c(O)c3c(c(O)c1C2=O)C[C@@](O)(C(C)=O)C[C@@H]3O[C@H]1C[C@H](N)[C@H](O)[C@H](C)O1` [DNR, Daunorubicin], for which, in assay [3] (DNR 4 ng/ml), the “Live cells × 10^5” value is recorded as 0.44 × 10^5. Also, in assay [4] (DNR 5 ng/ml), the Live cells was 4.3 × 10^5.

As for cytochalasin, the “viability (percent viable cells)” value in assay [1] (then control antibodies) is “did not show a decrease in viability”.

Regarding `C[C@H]1CCC/C=C/[C@@H]2C[C@H](O)C[C@H]2[C@H](O)/C=C/C(=O)O1` [BFA, Brefeldin A], in assay [1] (BFA 25 μg/ml 2 hr at 37° C, then control antibodies), the viability of cells entry is reported as “no effect on the viability”.

B1: Asparaginase (protein, UniProt P00805 23-348, looked up)
L-asparaginase 2: LPNITILATGGTIAGGGDSATKSNYTVGKVGVENLVNAVPQLKDIANVKGEQVVNIGSQDMNDNVWLTLAKKINTDCDKTDGFVITHGTDTMEETAYFLDLTVKCDKPVVMVGAMRPSTSMSADGPFNLYNAVVTAADKASANRGVLVVMNDTVLDGRDVTKTNTTDVATFKSVNYGPLGYIHNGKIDYQRTPARKHTSDTPFDVSKLNELPKVGIVYNYANASDLPAKALVDAGYDGIVSAGVGNGNLYKSVFDTLATAAKTGTAVVRSSRVPTGATTQDAEVDDAKYGFVASGTLNPQKARVLLQLALTQTKDPQQIQQIFNQY
notes: L-asparaginase, chemotherapeutic enzyme
B1: in assay [2] (ASPR 0.8 U/ml), the live cell count was 6.2 × 10^5. Further, the “Live cells × 10^5” value in assay [3] (ASPR 0.8 U/ml) is on record as 3 × 10^5. Further, the Live cells in assay [4] (ASPR 0.8 U/ml) is listed as 9.2 × 10^5.
